Tests used:
[1] = tested on: calmodulin (CaM); experiment: Swelling response of CaM-integrated hydrogel / hydrogel microdomes to free ligand
Description: The hydrogel can swell when chlorpromazine (CPZ) is integrated into the hydrogel polymer network because immobilized phenothiazine is displaced from CaM by free CPZ. Phenothiazine is released from its CaM binding site and replaced by CPZ creating a relaxation of polymer chains. This relaxation allows more water to permeate the porous hydrogel polymer network, thus hydrogel swelling occurs.
In the first stage, CaM is bound to a phenothiazine. In the presence of CPZ, competitive binding occurs, and the non-covalent crosslinking is released creating expansion of the hydrogel network.
While the collective array can be used to visually screen for an analyte, the individually addressable microdome array is analyzed using a laser screening system to detect the change in height of the microdomes. The initial size of the hydrogel microdome, including the height of the microdome, is determined using the stylus profilometer. […] The microdome array 22 on substrate 24 is placed on a stage micrometer 26. A light generating means 14 such as a laser diode generates a light beam 16 that is reflected off the top of microdome 22 to produce a diffracted light 18 that is captured by photodiode 20. By positioning the microdome 22 on the stage micrometer 26, the initial height of the microdome can be determined by the amount of light deflected off the top of the microdome 22 by counting the number of photons detected by the photodiode 20.
After the initial reading, the microdome is not moved. A test solution is applied to the microdome for about 1 to 3½ minutes and then is removed and if the microdome swells, the amount of photons emitted off the microdome will change due to the swelling. The swell time for the hydrogel microdome is about 3½ minutes after the solution is applied to the microdome. […] After the test, the stage micrometer can be adjusted to bring another near by microdome in the array into the sensing area.

[2] = tested on: calmodulin (CaM109); experiment: Fluorescence assay of conformation change in fluorophore (MDCC)-labeled CaM109 monomer and dimer; type: binding; conditions: added to labeled calmodulin molecules that had already bound calcium
Description: In order to measure the extent of conformation change in CaM molecules in response to calcium and phenothiazine binding, a system has been developed in which a fluorophore is conjugated to a cysteine residue that had been inserted at amino acid 109 of wild type CaM using methods well known to those skilled in the art. This CaM mutant was called CaM109. The fluorescence of the fluorophore increases as the conformation of CaM changes in the presence of calcium.
Since wild-type CaM contains no cysteines, the addition of a cysteine to CaM at a desired position within the protein, allows for labeling of the protein at this position. Such labeling was done using a thiol-reactive fluorescent label called N-[2-(1-maleimidyl)ethyl]-7-(diethylamino)coumarin-3-carboxamide, or MDCC.
The fluorescence response of MDCC-labeled, CaM109 molecules was recorded in the absence and presence of 3×10^6 M Ca^++. The Ca^++ concentration was controlled by EGTA at pH 8.0, and the free Ca^++ concentrations were calculated using the software program Chelator (Haugland, 1996, Handbook of Fluorescent Probes and Research Chemicals, 6th edition, Molecular Probes, Eugene, Oreg., p. 52).

Row | SMILES | binding affinity for CaM (relative) ([1]; displacement of immobilized phenothiazine from the CaM binding site in the hydrogel) | swelling of protein-hydrogel microdomes ([1]; microdomes on polymethyl methacrylate or silanized glass slides) | swelling of CaM hydrogel with immobilized phenyl ligand (4-phenyl-1-butene) ([1]; phenothiazine derivative replaced with 4-phenyl-1-butene, swelling irreversible, FIG. 17) | fluorescence quenched [2] [%]
1 | CN(C)CCCN1c2ccccc2Sc2ccc(Cl)cc21 [chlorpromazine] | higher binding affinity for CaM than phenothiazine | swelling occurred | the hydrogel swells | –
2 | c1ccc2c(c1)Nc1ccccc1S2 [phenothiazine] | – | – | – | 100
